Measured values: patent US20050240034A1, “Artemisinin-based peroxide compounds as broad spectrum anti-infective agents” (priority 2002, published 2005)
Like-named read-outs stand apart in the source and are kept apart here.

How the values were obtained:
[1] = test system: P. falciparum D6 (Sierra Leone); assay: antimalarial parasite LDH (pLDH) assay, D6; type: cell-based, Plasmodium falciparum; details: pLDH assay, Table 5; read-out: P. falciparum (D6 Clone) IC50
Description: (§1) The Thad Cochran National Center for Natural Products Research (University of Mississippi) in vitro antimalarial screen was conducted using an enzyme assay for detection of P. falciparum (see procedure below). This assay is based on the observation that lactate dehydrogenase (LDH) of P. falciparum is distinguishable from host LDH activity. P. falciparum LDH rapidly uses 3-acetyl pyridine nicotinamide adenine dinucleotide (APAD) as a coenzyme in the biotransformation of […].^38 The same process is carried out in human red blood cells at a very slow rate.
(§2) The “Antimalarial parasite LDH assay” is currently being conducted according the following procedure: prepare a suspension of RBC with a 2% parasitemia and 2% hematocrit in malaria complete medium. Dispense 200 μl aliquots of this suspension into each well of a 96 well microtiter plate. Add 10 μl volumes of the drugs to be tested in duplicate to the appropriate wells. Place the plates into humidified chamber and flush the cultures with a gas mixture consisting of 90% N2, 5% O2, and 5% CO2. Transfer the chamber containing the plates to an incubator, and incubate for 48 hours at 37° C. After 48 hours add 100 μl aliquots of the Malstat™ reagent to each well of a new 96-well microtiter plate Resuspend the cultures from the assay plate by mixing each well up and down several times. Remove 20 μl from each well of the resuspend culture and add to the plate containing the Malstat™ reagent. Incubate the plates at room temperature for 30 minutes. After 30 minutes, add to each well 20 μl of the 1:1 mixture of the NBT/PES solution (2 mg/ml and 0.1 mg/ml, respectively). Incubate the plates in the dark for 1 hour. Add 100 μl of 5% acetic acid solution to stop the reaction. The plate is then read at an endpoint of approximately 650 nm. The dose response curves are generated using Microsoft Excel.
(§3) Antimalarial activity of the analogues was determined in vitro on chloroquine sensitive (D)6, Sierra Leone) and resistant (W2, IndoChina) strains of Plasmodium falciparum. The 96 well microplate assay is based on evaluation of the effect of the compounds on the growth of asynchronous cultures of P. falciparum, determined by the assay of parasite lactate dehydrogenase (pLDH) activity.^28 The appropriate dilutions of the compounds were prepared in DMSO or RPMI-1640 medium and added to the cultures of P. falciparum (2% hematocrit, 2% parasitemia) set up in clear flat bottomed 96 well plates. The plates were placed into the humidified chamber and flushed with a gas mixture of 90% N2, 5% CO2 & 5% O2. The cultures were incubated at 37° C. for 48 hours. Growth of the parasite in each well was determined by pLDH assay using Malstat® reagent. The medium and RBC controls were also set-up in each plate. The standard antimalarial agents, chloroquine and artemisinin, were used as the positive controls while DMSO was tested as the negative control.

[2] = test system: Leishmania donovani promastigotes expressing firefly luciferase; assay: antileishmanial luciferase assay on transgenic promastigotes; type: cell-based
Description: Antileishmanial activity of the compounds was tested on a transgenic cell line of Leishmania donovani promastigotes expressing firefly luciferase.^29a In a 96 well microplate assay, compounds with appropriate dilution were added to the leishmania promastigotes culture (2×10^6 cell/mL). The plates were incubated at 26° C. for 72 hours and growth of leishmania promastigotes was determined by luciferase assay with Steady Glo® reagent (Promega, USA). Pentamidine and Amphotericin B were used as standard antileishmanial agents. The analogues were simultaneously tested for cytotoxicity on VERO cells (monkey kidney fibroblast) by Neutral Red assay.^29b IC50 values for the compounds were computed from the growth inhibition curve.

[3] = test system: P. falciparum W2 (IndoChina); assay: antimalarial parasite LDH (pLDH) assay, W2; type: cell-based, Plasmodium falciparum; details: pLDH assay, Table 5; read-out: P. falciparum (W2 Clone) IC50
Description: as §1, §2
as §3, with “plate.” for “plate. The standard antimalarial agents, chloroquine and artemisinin, were used as the positive controls while DMSO was tested as the negative control.”

[4] = test system: P. yoelli ssp. NS; assay: in vivo 4-day antimalarial test in mice, P. yoelli ssp. NS
Description: (§4) The parasitemia is determined on the day following the last treatment—day 4 to determine qualitatively the presence and degree of activity at the screening dose.

[5] = test system: P. berghei N; assay: in vivo Peter's 4-day antimalarial test in mice, P. berghei N
Description: as §4

[6] = Table 1 (artemisinin analogues), NA = not active up to 125 μg/ml, read-out: Antileishmanial activity IC50
[7] = mice, oral, 4-day test, unit not given
[8] = mice, subcutaneous, 4-day test, unit not given
[9] = Table 3 (continues Table 1), read-out: Antileishmanial activity IC50
[10] = Table 4, NA = not active up to 125 μg/ml, read-out: IC50

C[C@@H]1CC[C@H]2[C@@H](C)C(=O)O[C@@H]3O[C@@]4(C)CC[C@@H]1[C@]32OO4 [Artemisinin, artemisinin]
IC50 [1]: 17 nM
IC50 [2, 6]: 124 µM

N=C(N)c1ccc(OCCCCCOc2ccc(C(=N)N)cc2)cc1 [Pentamidine, reference compound]
IC50 ([2]; Leishmania donovani, read-out: Antileishmanial activity IC50): 1.35 µM

CC1CCC2C(CCCCc3ccccc3)C(=O)OC3OC4(C)CCC1C32OO4 (stereo not shown) [Compound 70]
IC50 [2, 6]: 7.5 µM

CCCC1C(=O)OC2OC3(C)CCC4C(C)CCC1C24OO3 (stereo not shown) [Compound 63]
IC50 [2, 6]: 16.8 µM

(+)-Octabydro-3,6α-dimethyl-3,12-epoxy-9β-(3′-(m-fluorophenyl)propyl)-12H-pyrano[4,3j]-1,2-benzodioxepin-10(3H)-one [Compound 30]
IC50 [1]: 30.1 nM
IC50 [2, 6]: 53.8 µM
IC50 [3]: 20 nM

C[C@H]1[C@H](OC(=O)CCC(=O)[O-])O[C@@H]2O[C@@]3(C)CC[C@H]4[C@H](C)CC[C@@H]1[C@@]24OO3.[Na+] [Sodium artesunate, sodium artesunate, reference compound]
% Suppression ([4]; strain NS, route PO): 56.5%
ED50 ([4]; strain NS, route PO): <10 mg/kg × 4
ED90 ([4]; strain NS, route PO): >10 mg/kg × 4
P. yoelli ssp. NS (S.C.) ED50 ([4]; subcutaneous, unit inferred): 5.3 mg/kg
P. yoelli ssp. NS (S.C.) ED90 ([4]; subcutaneous, unit inferred): 23.3 mg/kg
P. berghei N P.O. ED50 [5, 7]: 2.4
P. berghei N P.O. ED90 [5, 7]: 13.0
P. berghei N S.C. ED50 [5, 8]: 1.5
P. berghei N S.C. ED90 [5, 8]: 6.3
% Suppression ([5]; strain N, route PO): 77.2%
ED50 ([5]; strain N, route PO): <10 mg/kg × 4
ED90 ([5]; strain N, route PO): >10 mg/kg × 4

(+)-Octahydro-3,6α-dimethyl-3,12-epoxy-9β-(3′-(trifluoromethyl)propyl)-12H-pyrano[4,3j]-1,2-benzodioxepin-10(3H)-one [Compound 28]
IC50 [1]: 43.9 nM
IC50 [2, 6]: 1.4 µM
IC50 [3]: 50.8 nM

CC1CCC2C(CCCc3cccc(F)c3)C(=O)OC3OC4(C)CCC1C32OO4 (stereo not shown) [Compound 71]
IC50 [2, 6]: 3.7 µM

CC1CCC2C(CCCc3cc(C(F)(F)F)cc(C(F)(F)F)c3)COC3OC4(C)CCC1C32OO4 (stereo not shown) [Compound 101]
IC50 [2, 9]: 0.3 µM

COc1ccc(CCCC2COC3OC4(C)CCC5C(C)CCC2C35OO4)cc1 (stereo not shown) [Compound 99]
IC50 [2, 9]: 17.4 µM

CC1CCC2CC(=O)N(CCc3ccccc3)C3OC4(C)CCC1C23OO4 (stereo not shown) [Compound 110]
IC50 [2, 10]: 32.3 µM

CC1CCC2C(CCCc3ccccc3)C(=O)OC3OC4(C)CCC1C32OO4 (stereo not shown) [Compound 26]
IC50 [1]: 4.7 nM
IC50 [2, 6]: 11.6 µM
IC50 [3]: 1.3 nM

CC1CCC2CC(=O)OC3OC4(C)CCC1C23OO4 (stereo not shown) [Compound 60]
IC50 [2, 6]: 242 µM

CC1CCC2CC(=O)N(Cc3ccccc3)C3OC4(C)CCC1C23OO4 (stereo not shown) [Compound 108]
IC50 [2, 10]: 56 µM

C[C@@H]1[C@H](O)[C@@H](C)/C=C/C=C/C=C/C=C/C=C/C=C/C=C/[C@H](O[C@@H]2O[C@H](C)[C@@H](O)[C@H](N)[C@@H]2O)C[C@@H]2O[C@](O)(C[C@@H](O)C[C@@H](O)[C@H](O)CC[C@@H](O)C[C@@H](O)CC(=O)O[C@H]1C)C[C@H](O)[C@H]2C(=O)O [Amphotericin B, reference compound]
IC50 [2, 9]: 0.01 µM

CC1CCC2C(CCCc3ccccc3)C(=O)OC3OC4(C)CCC1C32OO4 (stereo not shown) [Compound 27]
IC50 [1]: 10.4 nM
IC50 [2, 6]: 45.3 µM
IC50 [3]: 3.4 nM

CC1CCC2C(CCCc3ccc(Cl)c(Cl)c3)COC3OC4(C)CCC1C32OO4 (stereo not shown) [Compound 97]
IC50 [2, 9]: 2.3 µM

CC1CCC2CC(=O)N(Cc3ccc(Cl)cc3)C3OC4(C)CCC1C23OO4 (stereo not shown) [Compound 109]
IC50 [2, 10]: 25.5 µM

CCCCC1C(=O)OC2OC3(C)CCC4C(C)CCC1C24OO3 (stereo not shown) [Compound 65]
IC50 [2, 6]: 12.3 µM

CC1CCC2C(C)COC3OC4(C)CCC1C32OO4 (stereo not shown) [Compound 94]
IC50 [2, 9]: 46.6 µM

CCCCN1C(=O)CC2CCC(C)C3CCC4(C)OOC23C1O4 (stereo not shown) [Compound 105]
IC50 [2, 10]: 44.5 µM

(+)-Octahydro3,6α-dimethyl-3,12-epoxy-9β-(3′-(3,5-difluorophenyl)propyl)-12H-pyrano[4,3j)-1,2-benzodioxepin-10(3H)-one [Compound 34]
IC50 [1]: 18.8 nM
IC50 [2, 6]: 14.4 µM
IC50 [3]: 16 nM

CC1CCC2C(CCCc3ccc(N(C)C)cc3)COC3OC4(C)CCC1C32OO4 (stereo not shown) [Compound 43a]
IC50 [1]: 16.5 nM
IC50 [2, 9]: 36 µM
IC50 [3]: 14.3 nM

CC1CCC2C(CCCc3cc(F)cc(F)c3)COC3OC4(C)CCC1C32OO4 (stereo not shown) [Compound 100]
IC50 [2, 9]: 11 µM

CC1CCC2C(CCCc3cc(F)cc(F)c3)C(=O)OC3OC4(C)CCC1C32OO4 (stereo not shown) [Compound 74]
IC50 [2, 6]: 49.7 µM

COc1ccc(CCCC2C(=O)OC3OC4(C)CCC5C(C)CCC2C35OO4)cc1 (stereo not shown) [Compound 73]
IC50 [2, 6]: 12 µM

CC1CCC2CC(=O)N(CC(=O)OC(C)(C)C)C3OC4(C)CCC1C23OO4 (stereo not shown) [Compound 107]
IC50 [2, 10]: 27.5 µM

C[C@@H]1CC[C@@H]([C@@H](C)CO)[C@@]23C=C[C@@](C)(CC[C@@H]12)OO3 [Compound 112]
IC50 ([2]; Leishmania donovani): 131 µM

CC1CCC2C(CCC#N)C(=O)OC3OC4(C)CCC1C32OO4 (stereo not shown) [Compound 52]
IC50 [1]: 14.9 nM
IC50 [2, 6]: 38.9 µM
IC50 [3]: 14.9 nM

CC1CCC2C(CCCc3ccc(O)cc3)C(=O)OC3OC4(C)CCC1C32OO4 (single isomer, unassigned; (+)) [Compound 33]
IC50 [1]: 7.9 nM
IC50 [2, 6]: 44.7 µM
IC50 [3]: 4.7 nM

CC1CCC2C(CCCc3cccc(Cl)c3)COC3OC4(C)CCC1C32OO4 (stereo not shown) [Compound 96]
IC50 [2, 9]: 3.7 µM

CC1CCC2C(CCCc3ccc(C(F)(F)F)cc3)COC3OC4(C)CCC1C32OO4 (stereo not shown) [Compound 98]
IC50 [2, 9]: 1.8 µM

CC1CCC2C(CCCc3ccc(Cl)cc3)COC3OC4(C)CCC1C32OO4 (stereo not shown) [Compound 95]
IC50 [2, 9]: 4.9 µM

C=CCC1C(=O)OC2OC3(C)CCC4C(C)CCC1C24OO3 (stereo not shown) [Compound 64]
IC50 [2, 6]: 17.8 µM

CC1CCC2C(CCCc3ccc(Cl)cc3)C(=O)OC3OC4(C)CCC1C32OO4 (stereo not shown) [Compound 72]
IC50 [2, 6]: 11.9 µM

CC1CCC2C(C)(C)C(=O)OC3OC4(C)CCC1C32OO4 (stereo not shown) [Compound 62]
IC50 [2, 6]: 101 µM
